Several values for one entry are separate records, joined by “and”; a condition that tells them apart may be missing. Equal values may be shown once.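 Values below derive from 48-hour exposures of cells grown in 96-well plates, with endpoints linearly interpolated between the two concentrations bracketing the appropriate inhibition level. Here, GI50 denotes the concentration required for 50% inhibition of growth. TGI marks complete inhibition of growth.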
How the values were obtained:
Test in all cases: growth of human tumour cells (NCI), 48 h
HOP-62 NSCLC = system: HOP-62 NSCLC
IGROV1 ovarian = system: IGROV1 ovarian
M14 melanoma = system: M14 melanoma
MDA-MB-435 = system: MDA-MB-435
MOLT-4 leukemia = system: MOLT-4 leukemia
OVCAR-3 ovarian = system: OVCAR-3 ovarian
PC-3 prostate = system: PC-3 prostate
SNB-19 CNS = system: SNB-19 CNS
SW-620 colon = system: SW-620 colon
UACC-62 melanoma = system: UACC-62 melanoma

SMILES	TGI (HOP-62 NSCLC)	TGI (IGROV1 ovarian) [µM]	TGI (M14 melanoma) [µM]	TGI (MDA-MB-435) [µM]	TGI (MOLT-4 leukemia)	TGI (OVCAR-3 ovarian)	TGI (PC-3 prostate) [µM]	TGI (SNB-19 CNS)	TGI (SW-620 colon)	TGI (UACC-62 melanoma) [µM]	GI50 (HOP-62 NSCLC) [µM]	GI50 (IGROV1 ovarian) [µM]	GI50 (M14 melanoma) [µM]	GI50 (MDA-MB-435) [µM]	GI50 (MOLT-4 leukemia) [µM]	GI50 (OVCAR-3 ovarian) [µM]	GI50 (PC-3 prostate) [µM]	GI50 (SNB-19 CNS) [µM]	GI50 (SW-620 colon) [µM]	GI50 (UACC-62 melanoma) [µM]
Oc1oc(-c2ccccc2)nc1/C=C1/C=NN=N1	> 100 µM	> 100	> 100	> 100	> 100 µM	> 100 µM	> 100	> 100 µM	> 100 µM	> 100										
COc1ccc2nc(C3=CN(C4OC(CO)C(O)C(O)C4O)C4C=CC=CC34)sc2c1 (stereo not given)	56.9 µM	34.8	93.8	> 100	90.8 µM	> 100 µM	> 100	> 100 µM	> 100 µM	67.6	22.6	13.5	33	37.1	21.9	87.5	38.9	46.8	41.9	22.2
CCC(C)c1cnc(CC(C)C)c(=O)[nH]1 (stereo not given)	> 100 µM	> 100	> 100	> 100	> 100 µM	> 100 µM	> 100	> 100 µM	> 100 µM	> 100										
c1cc(C2N3CCCN2CC3)ccn1 (stereo not given)	> 100 µM	> 100	> 100	89.2	> 100 µM	> 100 µM	> 100	> 100 µM	> 100 µM	> 100										
CN(C)CCC(=O)NCc1c2nc3ccccc3nc2n2ccccc12	> 100 µM	28.4	69.5	> 100	> 100 µM	> 100 µM	> 100	> 100 µM	> 100 µM	> 100	24	0.338	26.3	67.8	38.8	> 100	33.5	52.9	58.7	> 100
Cc1cccc2cc3ccc4ccccc4c3cc12	> 100 µM	> 100	> 100	> 100	70.9 µM	> 100 µM	> 100	> 100 µM	> 100 µM	> 100										
Cc1sc2c(c1C)C(c1ccc(Cl)cc1)=N[C@@H](CC(=O)Nc1ccc(O)cc1)c1nnc(C)n1-2	17.2 µM	39.9	20.2	19	54.7 µM	18.7 µM	23.1	31.3 µM	32 µM	18.1	0.18	2.5	0.276	0.399	3.85	0.888	1.11	0.721	10.6	0.162
COC(=O)C1=C2CO[C@@H]3C[C@H]4C(C)(C)CCC[C@]4(C)C(=CC1)[C@]23C	> 100 µM	> 100	> 100	37.5	30.5 µM	32.2 µM	0.692	> 100 µM	> 100 µM	> 100	45.1	60.7	32.6	16.7	5.48	11.1	0.229	46.8	39.5	41.9
C=C(C)C1CCC2(CO)C(O)CC3(C)C(CCC4C5(C)CCC(O)C(C)(C)C5CCC43C)C12 (stereo not given)	27 µM	30	> 100	38.3	> 100 µM	29.2 µM	60.3	84.1 µM	> 100 µM											
CC1CCC(C#N)(NOC2=NCCN2)CC1 (stereo not given)		> 100	> 100	> 100	> 100 µM	> 100 µM	> 100	> 100 µM	> 100 µM	> 100		41.7	46.4	29.2	37.3	28.9	> 100	> 100	33.2	25.4
CCCCc1oc2ccccc2c1C(=O)c1cc(I)c(OCCN(CC)CC)c(I)c1	6.25 µM and 30.7 µM		4.78	6.53	4.27 µM and 7.8 µM	14.7 µM and 16.9 µM	8.91	5.35 µM and 18.7 µM	4.13 µM and 9.18 µM	3.83	2.36	4.66	2.18	2.41	1.92	3.69	1.95	2.04	1.76	
CC(C)(C)n1cc(-c2ccnc(NCCCNS(=O)(=O)c3ccc(Cl)cc3)c2)c(-c2cccc(O)c2)n1	3.52 µM	4.39	3.45	3.41	5.64 µM	3.72 µM	3.69	4.96 µM	3.56 µM	3.29	1.74	1.88	1.72	1.79	1.91	1.89	1.36	2.18	1.77	1.65

From PubChem BioAssay (NCI)
